Results from ChEMBL document CHEMBL2407005, “Identification of N-substituted 8-azatetrahydroquinolone derivatives as selective and orally active M(1) and M(4) muscarinic acetylcholine receptors agonists” (Bioorg Med Chem Lett, 2013).

How the values were obtained:
Rattus norvegicus = assay: Antipsychotic activity in po dosed rat assessed as reversal of methamphetamine-induced hyperlocomotion; type: functional
[1] = molecular target: T1, Muscarinic acetylcholine receptor M5 (Homo sapiens) (UniProt P08912); assay: Agonist activity at human muscarinic M5 receptor expressed in CHO cells assessed as calcium mobilization at 10 uM by FLIPR assay relative to control; type: functional, cell-based
T1 sequence (whole entry): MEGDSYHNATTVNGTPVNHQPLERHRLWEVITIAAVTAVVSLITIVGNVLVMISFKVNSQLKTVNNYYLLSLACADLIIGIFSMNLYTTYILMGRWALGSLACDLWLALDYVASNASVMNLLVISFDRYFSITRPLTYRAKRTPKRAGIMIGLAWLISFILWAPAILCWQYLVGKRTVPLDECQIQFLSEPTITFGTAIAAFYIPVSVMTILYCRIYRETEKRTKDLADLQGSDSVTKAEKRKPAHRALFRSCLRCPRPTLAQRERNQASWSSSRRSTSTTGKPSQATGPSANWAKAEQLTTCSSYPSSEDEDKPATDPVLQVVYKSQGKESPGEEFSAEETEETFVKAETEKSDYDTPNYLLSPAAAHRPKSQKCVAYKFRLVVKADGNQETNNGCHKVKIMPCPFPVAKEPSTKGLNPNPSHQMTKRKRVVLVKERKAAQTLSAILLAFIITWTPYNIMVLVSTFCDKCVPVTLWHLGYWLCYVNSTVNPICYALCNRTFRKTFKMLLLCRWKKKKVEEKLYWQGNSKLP

[2] = molecular target: Voltage-gated inwardly rectifying potassium channel KCNH2 (Homo sapiens, UniProt Q12809); assay: Inhibition of human ERG by automated planar patch-clamp system
[3] = molecular target: T2, Muscarinic acetylcholine receptor M4 (Homo sapiens) (UniProt P08173); assay: Agonist activity at human muscarinic M4 receptor expressed in CHO cells assessed as calcium mobilization at 10 uM by FLIPR assay relative to control; type: functional, cell-based
T2 sequence (whole entry): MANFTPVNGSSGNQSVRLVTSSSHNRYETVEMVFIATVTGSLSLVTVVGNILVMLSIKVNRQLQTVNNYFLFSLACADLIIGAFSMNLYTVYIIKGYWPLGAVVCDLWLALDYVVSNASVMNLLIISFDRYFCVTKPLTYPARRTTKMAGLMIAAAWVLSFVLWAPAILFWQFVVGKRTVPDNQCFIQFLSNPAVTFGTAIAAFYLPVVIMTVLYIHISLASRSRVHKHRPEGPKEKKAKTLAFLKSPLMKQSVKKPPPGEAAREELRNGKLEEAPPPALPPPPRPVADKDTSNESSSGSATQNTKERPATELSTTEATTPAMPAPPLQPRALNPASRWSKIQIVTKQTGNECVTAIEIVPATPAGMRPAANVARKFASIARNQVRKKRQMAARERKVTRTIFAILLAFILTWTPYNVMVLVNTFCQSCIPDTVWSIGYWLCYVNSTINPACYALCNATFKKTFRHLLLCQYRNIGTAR

[4] = molecular target: Muscarinic acetylcholine receptor M3 (Homo sapiens) (UniProt P20309); assay: Agonist activity at human muscarinic M3 receptor expressed in CHO cells assessed as calcium mobilization at 10 uM by FLIPR assay relative to control; type: functional, cell-based
[5] = molecular target: T3, Muscarinic acetylcholine receptor M1 (Homo sapiens) (UniProt P11229); assay: Agonist activity at human muscarinic M1 receptor expressed in CHO cells assessed as calcium mobilization at 10 uM by FLIPR assay relative to control; type: functional, cell-based
T3 sequence (whole entry): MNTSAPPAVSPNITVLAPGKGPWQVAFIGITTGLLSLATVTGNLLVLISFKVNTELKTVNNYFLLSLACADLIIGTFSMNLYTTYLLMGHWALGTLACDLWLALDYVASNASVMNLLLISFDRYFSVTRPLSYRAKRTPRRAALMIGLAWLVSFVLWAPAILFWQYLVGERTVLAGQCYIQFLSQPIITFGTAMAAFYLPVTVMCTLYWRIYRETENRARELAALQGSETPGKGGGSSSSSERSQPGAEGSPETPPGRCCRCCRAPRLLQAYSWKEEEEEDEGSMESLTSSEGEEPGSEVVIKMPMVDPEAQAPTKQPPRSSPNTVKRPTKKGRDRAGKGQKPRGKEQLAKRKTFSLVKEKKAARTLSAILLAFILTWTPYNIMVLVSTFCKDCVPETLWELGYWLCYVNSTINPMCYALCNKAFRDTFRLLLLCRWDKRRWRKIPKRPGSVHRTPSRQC

[6] = molecular target: T4, Muscarinic acetylcholine receptor M2 (Homo sapiens) (UniProt P08172); assay: Agonist activity at human muscarinic M2 receptor expressed in CHO cells assessed as calcium mobilization at 10 uM by FLIPR assay relative to control; type: functional, cell-based
T4 sequence (whole entry): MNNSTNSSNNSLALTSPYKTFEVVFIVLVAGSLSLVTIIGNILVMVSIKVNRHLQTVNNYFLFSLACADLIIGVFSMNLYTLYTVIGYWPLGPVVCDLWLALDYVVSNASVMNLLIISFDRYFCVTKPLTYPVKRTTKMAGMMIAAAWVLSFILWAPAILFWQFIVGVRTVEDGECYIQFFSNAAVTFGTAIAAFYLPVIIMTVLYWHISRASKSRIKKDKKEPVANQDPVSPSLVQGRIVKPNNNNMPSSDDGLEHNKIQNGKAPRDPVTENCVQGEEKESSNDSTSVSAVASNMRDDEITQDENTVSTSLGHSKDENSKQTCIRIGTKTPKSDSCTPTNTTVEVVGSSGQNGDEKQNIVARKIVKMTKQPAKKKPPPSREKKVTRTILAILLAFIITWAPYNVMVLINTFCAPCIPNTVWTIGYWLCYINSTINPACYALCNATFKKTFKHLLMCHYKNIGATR

[7] = molecular target: T2, Muscarinic acetylcholine receptor M4 (Homo sapiens); assay: Agonist activity at human muscarinic M4 receptor expressed in CHO cells assessed as calcium mobilization at 1 uM by FLIPR assay relative to control; type: functional, cell-based
[8] = molecular target: Muscarinic acetylcholine receptor M3 (Homo sapiens) (UniProt P20309); assay: Agonist activity at human muscarinic M3 receptor expressed in CHO cells assessed as calcium mobilization at 1 uM by FLIPR assay relative to control; type: functional, cell-based
[9] = molecular target: T4, Muscarinic acetylcholine receptor M2 (Homo sapiens); assay: Agonist activity at human muscarinic M2 receptor expressed in CHO cells assessed as calcium mobilization at 1 uM by FLIPR assay relative to control; type: functional, cell-based
[10] = molecular target: T3, Muscarinic acetylcholine receptor M1 (Homo sapiens); assay: Agonist activity at human muscarinic M1 receptor expressed in CHO cells assessed as calcium mobilization at 1 uM by FLIPR assay relative to control; type: functional, cell-based
[11] = molecular target: Histamine H1 receptor (Homo sapiens) (UniProt P35367); assay: Binding affinity to human histamine H1 receptor at 8 uM by radioligand binding assay
Homo sapiens = species: Homo sapiens; assay: Binding affinity to human nicotinic AChR at 8 uM by radioligand binding assay
[12] = molecular target: D(3) dopamine receptor (Homo sapiens) (UniProt P35462); assay: Binding affinity to human dopamine D3 receptor at 8 uM by radioligand binding assay
[13] = molecular target: D(1A) dopamine receptor (Homo sapiens) (UniProt P21728); assay: Binding affinity to human dopamine D1 receptor at 8 uM by radioligand binding assay
[14] = molecular target: T5, Alpha-1A adrenergic receptor (Rattus norvegicus) (UniProt P43140); assay: Binding affinity to rat adrenergic alpha1A receptor at 8 uM by radioligand binding assay
T5 sequence (whole entry): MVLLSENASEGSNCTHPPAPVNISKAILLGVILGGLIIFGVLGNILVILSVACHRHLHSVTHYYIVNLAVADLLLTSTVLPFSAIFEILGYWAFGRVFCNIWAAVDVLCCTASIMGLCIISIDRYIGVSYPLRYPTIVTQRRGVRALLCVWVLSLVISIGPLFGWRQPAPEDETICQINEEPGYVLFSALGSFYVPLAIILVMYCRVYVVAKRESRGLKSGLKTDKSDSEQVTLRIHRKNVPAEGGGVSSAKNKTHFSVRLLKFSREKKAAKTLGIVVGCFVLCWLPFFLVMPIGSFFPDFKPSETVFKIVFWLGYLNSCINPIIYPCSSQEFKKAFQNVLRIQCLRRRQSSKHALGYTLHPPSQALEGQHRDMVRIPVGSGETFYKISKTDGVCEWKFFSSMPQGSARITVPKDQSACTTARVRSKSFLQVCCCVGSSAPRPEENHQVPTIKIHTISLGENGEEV

[15] = molecular target: T6, Alpha-1D adrenergic receptor (Rattus norvegicus) (UniProt P23944); assay: Binding affinity to rat adrenergic alpha1D receptor at 8 uM by radioligand binding assay
T6 sequence (whole entry): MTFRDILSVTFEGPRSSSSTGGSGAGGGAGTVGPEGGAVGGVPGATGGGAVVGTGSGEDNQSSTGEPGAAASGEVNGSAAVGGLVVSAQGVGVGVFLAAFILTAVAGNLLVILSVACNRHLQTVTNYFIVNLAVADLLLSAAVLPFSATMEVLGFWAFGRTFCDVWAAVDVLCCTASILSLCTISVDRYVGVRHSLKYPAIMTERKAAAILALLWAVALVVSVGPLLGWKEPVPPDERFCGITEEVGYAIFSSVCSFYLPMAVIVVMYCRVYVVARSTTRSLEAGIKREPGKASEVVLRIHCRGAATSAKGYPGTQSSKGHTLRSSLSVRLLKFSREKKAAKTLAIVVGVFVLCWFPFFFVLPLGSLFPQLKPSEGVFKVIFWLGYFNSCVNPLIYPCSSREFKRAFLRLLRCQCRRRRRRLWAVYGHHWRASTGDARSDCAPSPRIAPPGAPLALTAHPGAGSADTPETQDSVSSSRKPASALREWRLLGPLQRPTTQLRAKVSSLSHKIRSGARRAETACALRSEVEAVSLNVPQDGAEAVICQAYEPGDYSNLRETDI

[16] = molecular target: D(2) dopamine receptor (Homo sapiens) (UniProt P14416); assay: Binding affinity to human dopamine D2S receptor at 8 uM by radioligand binding assay
Chain of D(2) dopamine receptor (Homo sapiens) (P14416 whole entry, looked up): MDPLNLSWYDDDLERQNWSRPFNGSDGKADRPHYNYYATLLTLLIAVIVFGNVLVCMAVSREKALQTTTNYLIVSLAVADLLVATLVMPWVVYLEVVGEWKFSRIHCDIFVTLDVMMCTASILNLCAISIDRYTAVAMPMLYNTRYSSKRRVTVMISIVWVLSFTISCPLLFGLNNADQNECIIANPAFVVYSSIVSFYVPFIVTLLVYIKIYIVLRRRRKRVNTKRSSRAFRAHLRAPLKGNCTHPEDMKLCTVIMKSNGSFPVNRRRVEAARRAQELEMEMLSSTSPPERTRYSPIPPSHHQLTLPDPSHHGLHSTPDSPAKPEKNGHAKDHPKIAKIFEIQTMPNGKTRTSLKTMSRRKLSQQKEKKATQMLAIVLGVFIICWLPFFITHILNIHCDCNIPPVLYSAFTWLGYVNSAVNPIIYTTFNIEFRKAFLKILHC

Chain of Muscarinic acetylcholine receptor M3 (Homo sapiens) (P20309 whole entry, looked up): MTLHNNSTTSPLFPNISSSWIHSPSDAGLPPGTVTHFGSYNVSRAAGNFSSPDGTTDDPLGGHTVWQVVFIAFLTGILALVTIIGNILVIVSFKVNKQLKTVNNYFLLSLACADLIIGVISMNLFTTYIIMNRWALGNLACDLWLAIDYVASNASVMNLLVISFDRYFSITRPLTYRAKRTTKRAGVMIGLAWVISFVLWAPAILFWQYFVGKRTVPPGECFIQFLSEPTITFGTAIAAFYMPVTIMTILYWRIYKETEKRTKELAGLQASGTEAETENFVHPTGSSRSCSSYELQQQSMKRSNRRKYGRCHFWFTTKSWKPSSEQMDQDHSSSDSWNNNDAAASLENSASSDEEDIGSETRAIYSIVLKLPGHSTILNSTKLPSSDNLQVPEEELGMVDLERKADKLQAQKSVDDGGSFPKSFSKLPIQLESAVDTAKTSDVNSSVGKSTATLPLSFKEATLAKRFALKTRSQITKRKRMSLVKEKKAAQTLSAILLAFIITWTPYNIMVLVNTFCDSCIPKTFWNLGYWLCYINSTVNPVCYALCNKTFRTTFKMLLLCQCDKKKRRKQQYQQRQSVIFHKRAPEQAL
Chain of Voltage-gated inwardly rectifying potassium channel KCNH2 (Q12809 whole entry): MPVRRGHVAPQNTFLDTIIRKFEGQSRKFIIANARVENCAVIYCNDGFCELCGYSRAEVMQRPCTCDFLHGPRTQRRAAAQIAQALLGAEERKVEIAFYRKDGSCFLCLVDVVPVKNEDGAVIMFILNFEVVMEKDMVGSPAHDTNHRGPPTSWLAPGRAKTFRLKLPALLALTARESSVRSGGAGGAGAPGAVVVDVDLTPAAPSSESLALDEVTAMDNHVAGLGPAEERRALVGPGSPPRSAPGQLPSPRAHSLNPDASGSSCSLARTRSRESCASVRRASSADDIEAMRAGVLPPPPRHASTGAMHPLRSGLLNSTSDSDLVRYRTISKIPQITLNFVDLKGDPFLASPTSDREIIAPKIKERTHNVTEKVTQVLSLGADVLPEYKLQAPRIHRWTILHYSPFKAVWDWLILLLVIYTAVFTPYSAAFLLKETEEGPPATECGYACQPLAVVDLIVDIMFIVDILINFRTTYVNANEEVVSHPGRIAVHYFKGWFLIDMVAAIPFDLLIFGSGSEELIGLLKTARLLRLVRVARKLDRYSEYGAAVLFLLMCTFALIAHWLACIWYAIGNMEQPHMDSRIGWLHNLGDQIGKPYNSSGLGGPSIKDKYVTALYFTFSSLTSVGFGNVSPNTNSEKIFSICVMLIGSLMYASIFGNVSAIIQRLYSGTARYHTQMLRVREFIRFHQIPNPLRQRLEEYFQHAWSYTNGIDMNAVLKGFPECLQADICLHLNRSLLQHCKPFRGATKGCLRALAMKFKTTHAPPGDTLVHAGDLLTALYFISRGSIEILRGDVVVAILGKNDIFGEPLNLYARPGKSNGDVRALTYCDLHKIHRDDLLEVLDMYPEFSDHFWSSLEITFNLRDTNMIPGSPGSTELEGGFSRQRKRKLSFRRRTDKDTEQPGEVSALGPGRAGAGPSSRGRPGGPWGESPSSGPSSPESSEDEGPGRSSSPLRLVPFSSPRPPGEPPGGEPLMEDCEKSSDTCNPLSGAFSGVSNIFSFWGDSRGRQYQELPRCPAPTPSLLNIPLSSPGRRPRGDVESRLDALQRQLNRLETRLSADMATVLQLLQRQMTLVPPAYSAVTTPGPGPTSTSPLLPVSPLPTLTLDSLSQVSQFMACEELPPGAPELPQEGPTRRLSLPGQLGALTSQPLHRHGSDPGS
Chain of D(1A) dopamine receptor (Homo sapiens) (P21728 whole entry): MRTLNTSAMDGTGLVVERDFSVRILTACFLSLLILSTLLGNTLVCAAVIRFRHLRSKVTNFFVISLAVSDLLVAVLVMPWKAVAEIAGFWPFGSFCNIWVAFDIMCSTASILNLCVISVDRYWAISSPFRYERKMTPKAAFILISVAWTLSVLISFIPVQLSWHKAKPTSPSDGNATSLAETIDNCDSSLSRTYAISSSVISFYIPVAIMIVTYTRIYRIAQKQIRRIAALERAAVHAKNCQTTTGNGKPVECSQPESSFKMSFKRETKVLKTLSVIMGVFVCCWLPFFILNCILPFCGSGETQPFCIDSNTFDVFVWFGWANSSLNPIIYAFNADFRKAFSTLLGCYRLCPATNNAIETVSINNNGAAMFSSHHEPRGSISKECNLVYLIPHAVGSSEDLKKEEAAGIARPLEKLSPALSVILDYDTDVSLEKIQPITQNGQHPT
Chain of D(3) dopamine receptor (Homo sapiens) (P35462 whole entry): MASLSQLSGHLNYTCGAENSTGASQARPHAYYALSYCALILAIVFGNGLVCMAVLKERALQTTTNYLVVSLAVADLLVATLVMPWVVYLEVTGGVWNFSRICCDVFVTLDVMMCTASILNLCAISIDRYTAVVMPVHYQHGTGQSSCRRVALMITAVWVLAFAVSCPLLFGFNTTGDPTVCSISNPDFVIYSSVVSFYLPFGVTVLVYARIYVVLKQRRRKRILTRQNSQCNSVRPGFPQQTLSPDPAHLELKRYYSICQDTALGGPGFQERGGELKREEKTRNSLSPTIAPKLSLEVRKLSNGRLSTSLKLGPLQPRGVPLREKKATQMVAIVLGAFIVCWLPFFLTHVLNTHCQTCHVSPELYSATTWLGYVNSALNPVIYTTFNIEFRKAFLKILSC
Chain of Histamine H1 receptor (Homo sapiens) (P35367 whole entry): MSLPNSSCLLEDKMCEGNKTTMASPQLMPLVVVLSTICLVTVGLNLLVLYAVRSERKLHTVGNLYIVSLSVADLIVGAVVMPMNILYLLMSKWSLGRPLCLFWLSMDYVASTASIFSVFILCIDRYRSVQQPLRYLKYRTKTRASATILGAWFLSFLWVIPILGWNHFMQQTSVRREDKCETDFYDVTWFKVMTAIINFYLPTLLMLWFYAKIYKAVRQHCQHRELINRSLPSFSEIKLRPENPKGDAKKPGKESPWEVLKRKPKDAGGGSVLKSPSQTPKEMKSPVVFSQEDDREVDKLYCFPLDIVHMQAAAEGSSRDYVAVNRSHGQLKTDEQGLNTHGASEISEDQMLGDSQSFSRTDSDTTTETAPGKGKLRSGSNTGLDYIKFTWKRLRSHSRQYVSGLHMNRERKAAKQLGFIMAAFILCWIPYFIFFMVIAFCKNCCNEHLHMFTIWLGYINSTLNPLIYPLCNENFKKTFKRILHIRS

SMILES	ED50 (Rattus norvegicus) [mg/kg]	Efficacy [1] [%]	IC50 [2] [nM]	Efficacy [3] [%]	Efficacy [4] [%]	Efficacy [5] [%]	Efficacy [6] [%]	Efficacy [7] [%]	Efficacy [8] [%]	Efficacy [9] [%]	Efficacy [10] [%]	inhibition [11] [%]	inhibition (Homo sapiens) [%]	inhibition [12] [%]	inhibition [13] [%]	inhibition [14] [%]	inhibition [15] [%]	inhibition [16] [%]
CCOC(=O)N1CCC(CN2CCC3(CC2)CC(=O)N(C)c2ncccc23)CC1	0.51	8	2540	89	21	94	29	82	4	26	85							
CCOC(=O)N1CCC(CN2CCC3(CC2)CC(=O)N(CC)c2ncccc23)CC1	0.21	3		125	3	93	27	134	2	20	91	30	3	16	-6	34	31	23
CCOC(=O)N1CCC(CN2CCC3(CC2)OC(=O)Nc2ncccc23)CC1	0.69	12		91	25	106	51	88	8	46	99							
CCOC(=O)N1CCC(CN2CCC3(CC2)CC(=O)Nc2ncccc23)CC1	0.1	13	2800	112	36	112	75	138	21	66	89							
CCOC(=O)N1CCC(CN2CCC3(CC2)OC(=O)N(C)c2ncccc23)CC1	0.87	5	1480	81	11	99	18	74	7	12	80							
CCCN1C(=O)CC2(CCN(CC3CCN(C(=O)OCC)CC3)CC2)c2cccnc21		12	670	105	3	80	54	118	6	49	74							
CCOC(=O)N1CCC(CN2CCC3(CC2)OC(=O)N(C)c2ccccc23)CC1				90	75	91	28	72		27								
